Experimental findings from ChEMBL document CHEMBL5715260, “Selectivity Literature for EUbOPEN Chemogenomic Library” (2024) are described below.

For series [1], the target named is T1, Alpha trans-inducing protein (Human alphaherpesvirus 1) (UniProt A0A5J6DW59). Briefly: Selectivity interaction (Reporter gene assay) EUB0000082b UL48. Further details: recommended concentration 3 uM. Background: A reporter such as luciferase makes a cellular process visible.
The target of series [2] is Nuclear receptor subfamily 4immunitygroup A member 1 (Homo sapiens) (UniProt P22736). Briefly: Selectivity interaction (Reporter gene assay) EUB0000082b NR4A1. Further details: recommended concentration 3 uM.
Series [3] concerns the target Steroidogenic factor 1 (Homo sapiens) (UniProt Q13285). Nature of the series: Selectivity interaction (Reporter gene assay) EUB0000082b NR5A1. Further details: recommended concentration 3 uM.
For series [4], the target named is T2, Nuclear receptor subfamily 2 group C member 1 (Homo sapiens) (UniProt P13056).
T2 sequence (whole entry): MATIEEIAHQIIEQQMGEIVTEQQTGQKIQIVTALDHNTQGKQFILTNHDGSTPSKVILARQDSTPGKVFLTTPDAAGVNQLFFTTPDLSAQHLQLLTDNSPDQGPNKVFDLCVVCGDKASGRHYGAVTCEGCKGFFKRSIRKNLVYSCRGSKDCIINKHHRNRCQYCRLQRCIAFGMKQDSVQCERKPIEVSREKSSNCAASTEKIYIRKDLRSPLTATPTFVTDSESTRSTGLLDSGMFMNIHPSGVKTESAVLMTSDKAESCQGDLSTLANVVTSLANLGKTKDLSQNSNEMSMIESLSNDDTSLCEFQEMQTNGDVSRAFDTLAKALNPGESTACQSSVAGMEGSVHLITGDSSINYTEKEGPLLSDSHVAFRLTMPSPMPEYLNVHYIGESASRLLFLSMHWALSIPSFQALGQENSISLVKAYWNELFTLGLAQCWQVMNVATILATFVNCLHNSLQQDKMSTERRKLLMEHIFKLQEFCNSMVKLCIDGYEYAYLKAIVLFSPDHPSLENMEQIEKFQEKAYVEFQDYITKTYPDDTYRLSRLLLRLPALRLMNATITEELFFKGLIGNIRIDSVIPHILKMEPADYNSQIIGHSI
Nature of the series: Selectivity interaction (Reporter gene assay) EUB0000082b NR2C1. Further details: recommended concentration 3 uM.

The target in series [5] is Nuclear receptor subfamily 2 group E member 1 (Homo sapiens) (UniProt Q9Y466). Briefly: Selectivity interaction (Reporter gene assay) EUB0000082b NR2E1. Also on record: recommended concentration 3 uM. Conditions: screened at recom. conc., Selectivity number of off-targets 2.0, Selectivity number of targets 5.0, Source Knowledge inhouse.
Series [6] has as its target NR1I2 (nuclear receptor subfamily 1 group I member 2, PXR) (Homo sapiens, UniProt O75469). Briefly: Selectivity interaction (Reporter gene assay) EUB0000082b NR1I2. Further details: recommended concentration 3 uM. The conditions noted are these: read-out: Fold activation.
In series [7] the target is T3, Hepatocyte nuclear factor 4-alpha (Homo sapiens) (UniProt P41235).
T3 sequence (whole entry): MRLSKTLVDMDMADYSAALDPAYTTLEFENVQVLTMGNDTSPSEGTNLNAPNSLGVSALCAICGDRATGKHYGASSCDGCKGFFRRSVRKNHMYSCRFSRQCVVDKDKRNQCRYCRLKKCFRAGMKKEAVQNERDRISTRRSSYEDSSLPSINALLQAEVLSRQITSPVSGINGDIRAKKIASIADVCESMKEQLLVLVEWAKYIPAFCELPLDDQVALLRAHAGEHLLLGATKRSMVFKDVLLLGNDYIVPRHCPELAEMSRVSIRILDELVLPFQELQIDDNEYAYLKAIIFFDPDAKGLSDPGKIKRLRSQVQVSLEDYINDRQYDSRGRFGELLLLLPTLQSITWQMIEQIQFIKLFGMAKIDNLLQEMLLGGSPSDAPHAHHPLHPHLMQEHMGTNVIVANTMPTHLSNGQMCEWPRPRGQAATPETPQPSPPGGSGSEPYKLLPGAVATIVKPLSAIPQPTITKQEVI
Briefly: Selectivity interaction (Reporter gene assay) EUB0000082b HNF4A. Further details: recommended concentration 3 uM.

The target of series [8] is T4, Retinoic acid receptor RXR-alpha (Homo sapiens) (UniProt P19793).
T4 sequence (whole entry): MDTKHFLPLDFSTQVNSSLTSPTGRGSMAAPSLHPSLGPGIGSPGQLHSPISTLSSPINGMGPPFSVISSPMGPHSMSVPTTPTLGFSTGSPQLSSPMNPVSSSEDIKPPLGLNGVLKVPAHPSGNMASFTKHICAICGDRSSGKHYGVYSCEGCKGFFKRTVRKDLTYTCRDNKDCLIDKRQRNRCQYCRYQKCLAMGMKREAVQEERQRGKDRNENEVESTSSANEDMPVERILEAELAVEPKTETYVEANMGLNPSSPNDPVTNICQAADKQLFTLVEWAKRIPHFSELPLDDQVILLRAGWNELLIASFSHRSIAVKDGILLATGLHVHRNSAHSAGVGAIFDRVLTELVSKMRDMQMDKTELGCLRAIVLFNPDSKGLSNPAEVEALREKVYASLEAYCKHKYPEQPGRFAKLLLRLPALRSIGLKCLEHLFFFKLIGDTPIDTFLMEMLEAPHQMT
Nature of the series: Selectivity interaction (Reporter gene assay) EUB0000082b RXRA. Also on record: recommended concentration 3 uM. The conditions noted are these: reference bexarotene 1 uM, Selectivity number of off-targets 0.0, Selectivity number of targets 1.0, Source Knowledge inhouse.

Series [9] has as its target cAMP and cAMP-inhibited cGMP 3',5'-cyclic phosphodiesterase 10A (Homo sapiens) (UniProt Q9Y233). Nature of the series: Selectivity interaction (Enzymatic assay) EUB0002694a PDE10A. Conditions: at 10 µM. Also on record: recommended concentration 1 uM.
Series [10] addresses cGMP-specific 3',5'-cyclic phosphodiesterase (Homo sapiens) (UniProt O76074). Nature of the series: Selectivity interaction (Enzymatic assay) EUB0002694a PDE5A. Also on record: recommended concentration 1 uM. The conditions noted are these: at 10 µM.
Series [11] deals with T3, Hepatocyte nuclear factor 4-alpha (Homo sapiens). Nature of the series: Selectivity interaction (Reporter gene assay) EUB0002358a HNF4A. Further details: recommended concentration 10 uM.
In series [12] the target is T2, Nuclear receptor subfamily 2 group C member 1 (Homo sapiens). Briefly: Selectivity interaction (Reporter gene assay) EUB0002358a NR2C1. Further details: recommended concentration 10 uM.
Series [13] concerns the target T1, Alpha trans-inducing protein (Human alphaherpesvirus 1). Nature of the series: Selectivity interaction (Reporter gene assay) EUB0002358a UL48. Further details: recommended concentration 10 uM.
In series [14] the target is Nuclear receptor subfamily 4immunitygroup A member 1 (Homo sapiens) (UniProt P22736). Briefly: Selectivity interaction (Reporter gene assay) EUB0002358a NR4A1. Further details: recommended concentration 10 uM.
For series [15], the target named is Steroidogenic factor 1 (Homo sapiens) (UniProt Q13285). Nature of the series: Selectivity interaction (Reporter gene assay) EUB0002358a NR5A1. Also on record: recommended concentration 10 uM.
Series [16] has as its target T4, Retinoic acid receptor RXR-alpha (Homo sapiens). Nature of the series: Selectivity interaction (Reporter gene assay) EUB0002358a RXRA. Also on record: recommended concentration 10 uM. The conditions noted are these: reference bexarotene 1 uM, Selectivity number of off-targets 0.0, Selectivity number of targets 1.0, Source Knowledge inhouse.
Series [17] has as its target Nuclear receptor subfamily 2 group E member 1 (Homo sapiens) (UniProt Q9Y466). Briefly: Selectivity interaction (Reporter gene assay) EUB0002358a NR2E1. Further details: recommended concentration 10 uM.
For series [18], the target named is T3, Hepatocyte nuclear factor 4-alpha (Homo sapiens). Nature of the series: Selectivity interaction (Reporter gene assay) EUB0002355a HNF4A. Also on record: recommended concentration 3 uM.
Series [19] has as its target T4, Retinoic acid receptor RXR-alpha (Homo sapiens). Briefly: Selectivity interaction (Reporter gene assay) EUB0002355a RXRA. Also on record: recommended concentration 3 uM. The conditions noted are these: reference bexarotene 1 uM, Selectivity number of off-targets 0.0, Selectivity number of targets 1.0, Source Knowledge inhouse.
The target in series [20] is T1, Alpha trans-inducing protein (Human alphaherpesvirus 1). Briefly: Selectivity interaction (Reporter gene assay) EUB0002355a UL48. Further details: recommended concentration 3 uM.
Series [21] deals with Nuclear receptor subfamily 2 group E member 1 (Homo sapiens) (UniProt Q9Y466). Nature of the series: Selectivity interaction (Reporter gene assay) EUB0002355a NR2E1. Also on record: recommended concentration 3 uM.
Series [22] concerns the target T2, Nuclear receptor subfamily 2 group C member 1 (Homo sapiens). Briefly: Selectivity interaction (Reporter gene assay) EUB0002355a NR2C1. Also on record: recommended concentration 3 uM.
The target in series [23] is Nuclear receptor subfamily 4immunitygroup A member 1 (Homo sapiens) (UniProt P22736). Briefly: Selectivity interaction (Reporter gene assay) EUB0002355a NR4A1. Also on record: recommended concentration 3 uM.
The target in series [24] is Steroidogenic factor 1 (Homo sapiens) (UniProt Q13285). Nature of the series: Selectivity interaction (Reporter gene assay) EUB0002355a NR5A1. Also on record: recommended concentration 3 uM.

Molecules are shown by their SMILES.

Sequence of Nuclear receptor subfamily 4immunitygroup A member 1 (Homo sapiens) (P22736 whole entry): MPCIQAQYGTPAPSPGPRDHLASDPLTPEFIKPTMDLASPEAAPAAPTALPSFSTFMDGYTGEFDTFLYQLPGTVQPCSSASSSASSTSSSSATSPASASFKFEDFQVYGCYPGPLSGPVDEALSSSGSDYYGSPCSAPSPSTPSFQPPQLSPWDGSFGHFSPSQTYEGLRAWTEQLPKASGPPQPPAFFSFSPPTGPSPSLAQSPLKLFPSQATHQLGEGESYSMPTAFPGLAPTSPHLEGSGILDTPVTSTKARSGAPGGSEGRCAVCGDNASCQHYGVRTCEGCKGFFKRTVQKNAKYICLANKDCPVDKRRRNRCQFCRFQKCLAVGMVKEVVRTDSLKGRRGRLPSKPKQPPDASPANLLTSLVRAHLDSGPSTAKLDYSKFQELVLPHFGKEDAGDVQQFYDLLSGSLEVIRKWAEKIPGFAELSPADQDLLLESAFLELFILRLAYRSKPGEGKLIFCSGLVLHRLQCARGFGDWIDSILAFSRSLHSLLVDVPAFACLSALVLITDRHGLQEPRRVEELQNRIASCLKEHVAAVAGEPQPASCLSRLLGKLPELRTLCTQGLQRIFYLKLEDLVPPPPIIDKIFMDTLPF
T1 sequence (A0A5J6DW59 as listed by the source): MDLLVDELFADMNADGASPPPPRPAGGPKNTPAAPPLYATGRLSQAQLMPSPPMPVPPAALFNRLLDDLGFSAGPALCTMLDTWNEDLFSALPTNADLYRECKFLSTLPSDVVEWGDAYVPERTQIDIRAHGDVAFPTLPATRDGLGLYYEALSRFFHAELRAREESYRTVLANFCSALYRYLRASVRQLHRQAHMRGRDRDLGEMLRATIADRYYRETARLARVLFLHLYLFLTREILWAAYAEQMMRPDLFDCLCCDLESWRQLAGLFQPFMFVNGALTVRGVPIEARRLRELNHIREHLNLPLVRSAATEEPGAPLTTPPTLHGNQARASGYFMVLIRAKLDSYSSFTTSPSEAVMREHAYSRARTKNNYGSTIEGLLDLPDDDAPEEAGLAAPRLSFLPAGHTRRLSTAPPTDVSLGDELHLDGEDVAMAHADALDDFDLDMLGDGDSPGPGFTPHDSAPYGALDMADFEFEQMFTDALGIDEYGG
Sequence of Nuclear receptor subfamily 2 group E member 1 (Homo sapiens) (Q9Y466 whole entry): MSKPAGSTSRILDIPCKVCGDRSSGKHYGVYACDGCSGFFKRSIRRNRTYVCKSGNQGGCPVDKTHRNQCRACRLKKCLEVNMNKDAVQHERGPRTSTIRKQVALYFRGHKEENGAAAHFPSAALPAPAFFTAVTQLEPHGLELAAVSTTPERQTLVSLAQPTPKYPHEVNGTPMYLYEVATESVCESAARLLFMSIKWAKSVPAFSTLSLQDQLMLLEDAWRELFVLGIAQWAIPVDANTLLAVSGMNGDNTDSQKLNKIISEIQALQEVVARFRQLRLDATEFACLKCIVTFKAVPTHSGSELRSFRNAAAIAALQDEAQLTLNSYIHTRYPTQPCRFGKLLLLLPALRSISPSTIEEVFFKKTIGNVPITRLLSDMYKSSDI
Sequence of Steroidogenic factor 1 (Homo sapiens) (Q13285 whole entry): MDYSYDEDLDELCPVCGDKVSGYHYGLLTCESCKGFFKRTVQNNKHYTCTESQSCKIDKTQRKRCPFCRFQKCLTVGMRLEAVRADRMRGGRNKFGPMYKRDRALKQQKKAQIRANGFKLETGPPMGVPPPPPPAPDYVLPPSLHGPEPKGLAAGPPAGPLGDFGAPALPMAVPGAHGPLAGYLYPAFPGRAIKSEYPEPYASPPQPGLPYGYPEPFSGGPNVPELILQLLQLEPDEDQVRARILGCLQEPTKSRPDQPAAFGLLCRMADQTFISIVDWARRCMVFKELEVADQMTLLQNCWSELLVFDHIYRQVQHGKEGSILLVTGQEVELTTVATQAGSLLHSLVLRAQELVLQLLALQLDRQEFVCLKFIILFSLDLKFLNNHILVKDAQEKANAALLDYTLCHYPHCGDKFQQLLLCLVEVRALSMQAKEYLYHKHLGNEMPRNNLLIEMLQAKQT
Sequence of NR1I2 (nuclear receptor subfamily 1 group I member 2, PXR) (O75469 whole entry): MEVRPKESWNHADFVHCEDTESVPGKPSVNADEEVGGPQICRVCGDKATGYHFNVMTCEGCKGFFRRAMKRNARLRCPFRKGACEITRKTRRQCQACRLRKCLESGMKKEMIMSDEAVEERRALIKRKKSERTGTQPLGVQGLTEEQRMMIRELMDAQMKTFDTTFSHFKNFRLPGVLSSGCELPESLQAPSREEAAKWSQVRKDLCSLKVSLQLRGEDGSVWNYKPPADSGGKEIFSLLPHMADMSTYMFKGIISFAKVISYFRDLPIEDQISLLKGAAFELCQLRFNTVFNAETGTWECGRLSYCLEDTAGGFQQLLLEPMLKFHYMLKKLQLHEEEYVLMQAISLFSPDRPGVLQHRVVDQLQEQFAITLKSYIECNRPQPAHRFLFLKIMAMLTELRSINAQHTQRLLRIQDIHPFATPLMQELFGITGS
Sequence of cAMP and cAMP-inhibited cGMP 3',5'-cyclic phosphodiesterase 10A (Homo sapiens) (Q9Y233 whole entry): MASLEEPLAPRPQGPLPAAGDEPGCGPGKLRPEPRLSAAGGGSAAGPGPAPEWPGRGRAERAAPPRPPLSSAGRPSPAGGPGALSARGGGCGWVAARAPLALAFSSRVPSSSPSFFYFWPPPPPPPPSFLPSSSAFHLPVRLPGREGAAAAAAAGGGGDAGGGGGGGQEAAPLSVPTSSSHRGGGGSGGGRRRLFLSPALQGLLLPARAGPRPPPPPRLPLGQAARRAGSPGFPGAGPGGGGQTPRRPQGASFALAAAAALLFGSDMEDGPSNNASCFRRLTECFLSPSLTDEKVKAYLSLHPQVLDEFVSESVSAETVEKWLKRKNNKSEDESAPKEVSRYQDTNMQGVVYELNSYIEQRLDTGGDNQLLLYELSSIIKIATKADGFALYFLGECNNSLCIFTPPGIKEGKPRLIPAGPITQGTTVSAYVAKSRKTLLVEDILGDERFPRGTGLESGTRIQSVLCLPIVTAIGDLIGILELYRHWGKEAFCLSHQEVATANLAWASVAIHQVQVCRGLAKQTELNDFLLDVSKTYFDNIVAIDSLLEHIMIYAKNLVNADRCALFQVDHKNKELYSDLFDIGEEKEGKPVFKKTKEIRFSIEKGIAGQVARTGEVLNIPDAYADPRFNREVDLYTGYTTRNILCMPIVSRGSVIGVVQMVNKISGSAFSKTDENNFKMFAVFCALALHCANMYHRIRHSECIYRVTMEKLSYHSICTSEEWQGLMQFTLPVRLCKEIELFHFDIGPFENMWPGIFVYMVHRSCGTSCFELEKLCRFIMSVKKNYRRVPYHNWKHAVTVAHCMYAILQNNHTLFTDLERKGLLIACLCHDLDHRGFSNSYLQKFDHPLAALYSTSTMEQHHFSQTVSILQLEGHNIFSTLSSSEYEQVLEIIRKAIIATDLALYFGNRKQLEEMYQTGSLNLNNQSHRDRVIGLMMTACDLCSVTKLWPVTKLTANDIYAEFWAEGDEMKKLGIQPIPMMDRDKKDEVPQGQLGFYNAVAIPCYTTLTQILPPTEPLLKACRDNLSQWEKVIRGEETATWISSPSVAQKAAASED

In series [1], `Fc1ccc(-c2c3cccc(C(F)(F)F)c3nn2Cc2ccc(F)cc2Cl)cc1` [LXR-623] gave a P-value of 4.11e-06. Also, the Fold activation worked out at 1.28 in [2], 1.63 in series [4], 1.84 in [5] and 0.867 in [7]. For the same compound, the Remaining activity in [3] worked out at 0.876. The fold induction in series [6] was determined as 2.24. Also, the Relative activation in series [8] was found to be 0.523%.
For `N#Cc1ccc(-c2c3n(c4cccnc24)CCN(C2CC2)C3=O)cc1F`, the inhibition (as a rule, the relative decrease from the control value, in per cent) in series [9] was found to be 82.1%; in [10], 61.8%.
Take `O=c1[nH]c2ccccc2n1CCCN1CCN(C(c2ccccc2)c2ccccc2)CC1`: the Fold activation turned out to be 0.736 in series [11], 0.803 in series [12], 1.16 in [14] and 0.661 in series [17]. Moreover, the P-value in series [13] stood at 6e-08. For the same compound, in series [15], the Remaining activity was 1.07. This compound also had a Relative activation in [16] of 0.76%.
Regarding `Cc1oc2ccccc2c1Cc1cc(I)c(OCC(=O)O)c(I)c1`, the Remaining activity in series [18] came out at 0.739; in series [21], 0.732; in [24], 0.684. The Relative activation in [19] was determined as 0.91%. In series [20], the P-value is 0.0128. Further, the Fold activation in series [22] is 1.28; in series [23], 1.02.
